Results on 3 compounds are retold here after ChEMBL document CHEMBL1129860, “Studies on penam sulfones III. Synthesis and -lactamase inhibitory activity of sodium (6R)-6-(-hydroxybenzyl)-2-methoxyiminomethyl-2-methylpenam-3-carboxylate 1,1-dioxide and sodium 2-acyl-2-methylpenam-3-carboxylate 1,1-dioxide” (1997).

The test system of experiment [1] is Klebsiella aerogenes. Put plainly: In vitro minimal inhibitory concentration (MIC) of compound in combination with piperacillin (PIPC) showed synergic activity against Enterobacter aerogenes 41004. Type of experiment: functional.
Experiment [2] concerns Escherichia coli. The experiment can be described thus: In vitro minimal inhibitory concentration (MIC) of compound in combination with piperacillin (PIPC) showed synergic activity against Escherichia coli OXA 3. Type of experiment: functional.
The next experiment deals with Serratia marcescens. Put plainly: In vitro minimal inhibitory concentration (MIC) of compound in combination with piperacillin (PIPC) showed synergic activity against Serratia marcescens 200 L. Type of experiment: functional.
The subject of experiment [3] is Citrobacter freundii. The experiment can be described thus: In vitro minimal inhibitory concentration (MIC) of compound in combination with piperacillin (PIPC) showed synergic activity against Citrobacter freundii 2046E. Type of experiment: functional.
Experiment [4] concerns Klebsiella aerogenes. The experiment can be described thus: In vitro minimal inhibitory concentration (MIC) of compound in combination with piperacillin (PIPC) showed synergic activity against Enterobacter aerogenes 41006. Type of experiment: functional.
In experiment [5] the test system is Escherichia coli. Put plainly: In vitro minimal inhibitory concentration (MIC) of compound in combination with piperacillin (PIPC) showed synergic activity against Escherichia coli TEM 3. Type of experiment: functional.
Experiment [6] relates to Proteus vulgaris. Put plainly: In vitro minimal inhibitory concentration (MIC) of compound in combination with piperacillin (PIPC) showed synergic activity against Proteus vulgaris CT 106. Type of experiment: functional.
The subject of experiment [7] is Enterobacter cloacae. Put plainly: In vitro minimal inhibitory concentration (MIC) of compound in combination with piperacillin (PIPC) showed synergic activity against Enterobacter cloacae 40011. Type of experiment: functional.
The subject of experiment [8] is Staphylococcus aureus. Put plainly: In vitro minimal inhibitory concentration (MIC) of compound in combination with piperacillin (PIPC) showed synergic activity against Staphylococcus aureus 80K. Type of experiment: functional.
For experiment [9], the system named is Escherichia coli. Put plainly: In vitro minimal inhibitory concentration (MIC) of compound in combination with piperacillin (PIPC) showed synergic activity against Escherichia coli SHV 1. Type of experiment: functional.
The test system of experiment [10] is Morganella morganii. Put plainly: In vitro minimal inhibitory concentration (MIC) of compound in combination with piperacillin (PIPC) showed synergic activity against Morganella morganii 36014. Type of experiment: functional.
Experiment [11] has as its system Enterobacter cloacae. Put plainly: In vitro minimal inhibitory concentration (MIC) of compound in combination with piperacillin (PIPC) showed synergic activity against Enterobacter cloacae P99. Type of experiment: functional.
Experiment [12] has as its system Klebsiella pneumoniae. The experiment can be described thus: In vitro minimal inhibitory concentration (MIC) of compound in combination with piperacillin (PIPC) showed synergic activity against Klebsiella pneumoniae CTX 1. Type of experiment: functional.
The subject of experiment [13] is Staphylococcus aureus. Put plainly: In vitro minimal inhibitory concentration (MIC) of compound in combination with piperacillin (PIPC) showed synergic activity against Staphylococcus aureus 54K. Type of experiment: functional.
Experiment [14] has as its system Citrobacter freundii. Put plainly: In vitro minimal inhibitory concentration (MIC) of compound in combination with piperacillin (PIPC) showed synergic activity against Citrobacter freundii 44032. Type of experiment: functional.
Experiment [15] deals with Escherichia coli. The experiment can be described thus: In vitro minimal inhibitory concentration (MIC) of compound in combination with piperacillin (PIPC) showed synergic activity against Escherichia coli TEM 7. Type of experiment: functional.
In experiment [16] the test system is Escherichia coli. Put plainly: In vitro minimal inhibitory concentration (MIC) of compound in combination with piperacillin (PIPC) showed synergic activity against Escherichia coli SHV 5. Type of experiment: functional.
For experiment [17], the system named is Enterobacter cloacae. Put plainly: In vitro minimal inhibitory concentration (MIC) of compound in combination with piperacillin (PIPC) showed synergic activity against Enterobacter cloacae 40015. Type of experiment: functional.
Experiment [18] has as its system Escherichia coli. The experiment can be described thus: In vitro minimal inhibitory concentration (MIC) of compound in combination with piperacillin (PIPC) showed synergic activity against Escherichia coli OXA 1. Type of experiment: functional.
In experiment [19] the test system is Pseudomonas aeruginosa. Put plainly: In vitro minimal inhibitory concentration (MIC) of compound in combination with piperacillin (PIPC) showed synergic activity against Pseudomonas aeruginosa 46220 (DR-2). Type of experiment: functional.
Experiment [20] concerns Klebsiella aerogenes. The experiment can be described thus: In vitro minimal inhibitory concentration (MIC) of compound in combination with piperacillin (PIPC) showed synergic activity against Enterobacter aerogenes 41003. Type of experiment: functional.
Experiment [21] deals with Enterobacter cloacae. The experiment can be described thus: In vitro minimal inhibitory concentration (MIC) of compound in combination with Ceftazidime (CAZ) showed synergic activity against Enterobacter cloacae 40011. Type of experiment: functional.
In experiment [22] the test system is Enterobacter cloacae. Put plainly: In vitro minimal inhibitory concentration (MIC) of compound in combination with Ceftazidime (CAZ) showed synergic activity against Enterobacter cloacae E40002. Type of experiment: functional.
The test system of experiment [23] is Proteus vulgaris. The experiment can be described thus: In vitro minimal inhibitory concentration (MIC) of compound in combination with Ceftazidime (CAZ) showed synergic activity against Proteus vulgaris CT 106. Type of experiment: functional.
Experiment [24] deals with Escherichia coli. Put plainly: In vitro minimal inhibitory concentration (MIC) of compound in combination with Ceftazidime (CAZ) showed synergic activity against Escherichia coli TEM 3. Type of experiment: functional.
Experiment [25] deals with Citrobacter freundii. Put plainly: In vitro minimal inhibitory concentration (MIC) of compound in combination with Ceftazidime (CAZ) showed synergic activity against Citrobacter freundii 44032. Type of experiment: functional.
For experiment [26], the system named is Klebsiella aerogenes. Put plainly: In vitro minimal inhibitory concentration (MIC) of compound in combination with Ceftazidime (CAZ) showed synergic activity against Enterobacter aerogenes 41003. Type of experiment: functional.
The subject of experiment [27] is Citrobacter freundii. The experiment can be described thus: In vitro minimal inhibitory concentration (MIC) of compound in combination with Ceftazidime (CAZ) showed synergic activity against Citrobacter freundii CT 76. Type of experiment: functional.
The subject of experiment [28] is Klebsiella aerogenes. The experiment can be described thus: In vitro minimal inhibitory concentration (MIC) of compound in combination with Ceftazidime (CAZ) showed synergic activity against Enterobacter aerogenes 41006. Type of experiment: functional.
Experiment [29] relates to Escherichia coli. The experiment can be described thus: In vitro minimal inhibitory concentration (MIC) of compound in combination with Ceftazidime (CAZ) showed synergic activity against Escherichia coli TEM 7. Type of experiment: functional.
The subject of experiment [30] is Klebsiella pneumoniae. Put plainly: In vitro minimal inhibitory concentration (MIC) of compound in combination with Ceftazidime (CAZ) showed synergic activity against Klebsiella pneumoniae CTX 1. Type of experiment: functional.
Experiment [31] relates to Klebsiella aerogenes. Put plainly: In vitro minimal inhibitory concentration (MIC) of compound in combination with Ceftazidime (CAZ) showed synergic activity against Enterobacter aerogenes 41004. Type of experiment: functional.
For experiment [32], the system named is Morganella morganii. Put plainly: In vitro minimal inhibitory concentration (MIC) of compound in combination with Ceftazidime (CAZ) showed synergic activity against Morganella morganii 36014. Type of experiment: functional.
Experiment [33] deals with Pseudomonas aeruginosa. Put plainly: In vitro minimal inhibitory concentration (MIC) of compound in combination with Ceftazidime (CAZ) showed synergic activity against Pseudomonas aeruginosa 46220 (DR-2). Type of experiment: functional.
In experiment [34] the test system is Enterobacter cloacae. Put plainly: In vitro minimal inhibitory concentration (MIC) of compound in combination with Ceftazidime (CAZ) showed synergic activity against Enterobacter cloacae P99. Type of experiment: functional.
In experiment [35] the test system is Pseudomonas aeruginosa. The experiment can be described thus: microbe, parasite or virus in culture.
In experiment [36] the test system is Enterobacter cloacae. Put plainly: In vitro minimal inhibitory concentration (MIC) of compound in combination with Ceftazidime (CAZ) showed synergic activity against Enterobacter cloacae S-65. Type of experiment: functional.
Experiment [37] deals with Pseudomonas aeruginosa. Put plainly: microbe, parasite or virus in culture. This is another data set of the same source.
The test system of experiment [38] is Klebsiella aerogenes. Put plainly: In vitro minimal inhibitory concentration (MIC) of compound in combination with Ceftazidime (CAZ) showed synergic activity against Enterobacter aerogenes S-97. Type of experiment: functional.
Experiment [39] concerns Enterobacter cloacae. Put plainly: In vitro minimal inhibitory concentration (MIC) of compound in combination with Ceftazidime (CAZ) showed synergic activity against Enterobacter cloacae S-11. Type of experiment: functional.
Experiment [40] relates to Morganella morganii. Put plainly: In vitro minimal inhibitory concentration (MIC) of compound in combination with Ceftazidime (CAZ) showed synergic activity against Morganella morganii 36030. Type of experiment: functional.

Some results are limits rather than exact numbers.

In the case of `CC(=O)[C@@]1(C)[C@H](C(=O)[O-])N2C(=O)CC2S1(=O)=O.CCN1CCN(C(=O)NC(C(=O)N[C@@H]2C(=O)N3[C@@H]2SC(C)(C)[C@@H]3C(=O)O)c2ccccc2)C(=O)C1=O.[Na+]` (some centres not stated), the MIC in the experiment on Klebsiella aerogenes [1] is 6.25 µg/mL; with Escherichia coli [2], 1.56 µg/mL; in the experiment with Serratia marcescens, 3.13 µg/mL; in the experiment on Citrobacter freundii [3] it was 1.56 µg/mL; with Klebsiella aerogenes [4], 12.5 µg/mL; in the experiment with Escherichia coli [5], 3.13 µg/mL. Besides, the MIC in the experiment on Proteus vulgaris [6] is 25 µg/mL; in the experiment on Enterobacter cloacae [7], 6.25 µg/mL; with Staphylococcus aureus [8] it was 3.13 µg/mL; in the experiment with Escherichia coli [9], 3.13 µg/mL; in the experiment on Morganella morganii [10], 0.39 µg/mL; with Enterobacter cloacae [11], 12.5 µg/mL. Besides, the MIC in the experiment on Klebsiella pneumoniae [12] came to 12.5 µg/mL; in the experiment on Staphylococcus aureus [13] it was 6.26 µg/mL; in the experiment on Citrobacter freundii [14], 12.5 µg/mL; with Escherichia coli [15], 1.56 µg/mL; in the experiment with Escherichia coli [16], 1.56 µg/mL; with Enterobacter cloacae [17], 25 µg/mL. Besides, the MIC in the experiment with Escherichia coli [18] stood at 1.56 µg/mL; in the experiment with Pseudomonas aeruginosa [19], 6.25 µg/mL; in the experiment on Klebsiella aerogenes [20], 3.13 µg/mL.
Regarding `CC(=O)[C@@]1(C)[C@H](C(=O)[O-])N2C(=O)CC2S1(=O)=O.CC(C)(O/N=C(\C(=O)NC1C(=O)N2C(C(=O)[O-])=C(C[n+]3ccccc3)CSC12)c1csc(N)n1)C(=O)O.[Na+]` (configuration not stated), the MIC with Enterobacter cloacae [21] came to 1.56 µg/mL; in the experiment with Enterobacter cloacae [22] it was 12.5 µg/mL; in the experiment with Proteus vulgaris [23] it was 1.56 µg/mL; in the experiment on Escherichia coli [24], 0.39 µg/mL; in the experiment with Citrobacter freundii [25], 12.5 µg/mL; in the experiment on Klebsiella aerogenes [26] it was 1.56 µg/mL. In addition, the MIC is 12.5 µg/mL with Citrobacter freundii [27]; 12.5 µg/mL with Klebsiella aerogenes [28]; 0.39 µg/mL in the experiment on Escherichia coli [29]; 1.56 µg/mL in the experiment on Klebsiella pneumoniae [30]; 1.56 µg/mL in the experiment on Klebsiella aerogenes [31]; no more than 0.2 µg/mL in the experiment on Morganella morganii [32]. Also, the MIC in the experiment on Pseudomonas aeruginosa [33] and in the experiment with Enterobacter cloacae [34] was 6.25 µg/mL each time.
Take `CC(C)(O/N=C(\C(=O)NC1C(=O)N2C(C(=O)[O-])=C(C[n+]3ccccc3)CSC12)c1csc(N)n1)C(=O)O.CO/N=C/[C@@]1(C)[C@H](C(=O)[O-])N2C(=O)CC2S1(=O)=O.[Na+]` (configuration not stated): the MIC against Pseudomonas aeruginosa [35] was 16 µg/mL; in the experiment on Enterobacter cloacae [36], less than 0.25 µg/mL; against Pseudomonas aeruginosa [37], 32 µg/mL; with Klebsiella aerogenes [38], 0.5 µg/mL; in the experiment on Enterobacter cloacae [39], less than 0.25 µg/mL; in the experiment on Morganella morganii [40] it was less than 0.25 µg/mL. Also, the MIC with Morganella morganii [32] (Morganella morganii, read-out: MIC) was less than 0.25 µg/mL.
